Assays:
[1] = target: T1, 5-hydroxytryptamine receptor 3A (Homo sapiens) (UniProt P46098); assay: Antagonist activity at recombinant human 5-HT3 assessed as inhibition of agonist-induced effect at 10 uM by aequorin reporter based assay
T1 sequence (whole entry): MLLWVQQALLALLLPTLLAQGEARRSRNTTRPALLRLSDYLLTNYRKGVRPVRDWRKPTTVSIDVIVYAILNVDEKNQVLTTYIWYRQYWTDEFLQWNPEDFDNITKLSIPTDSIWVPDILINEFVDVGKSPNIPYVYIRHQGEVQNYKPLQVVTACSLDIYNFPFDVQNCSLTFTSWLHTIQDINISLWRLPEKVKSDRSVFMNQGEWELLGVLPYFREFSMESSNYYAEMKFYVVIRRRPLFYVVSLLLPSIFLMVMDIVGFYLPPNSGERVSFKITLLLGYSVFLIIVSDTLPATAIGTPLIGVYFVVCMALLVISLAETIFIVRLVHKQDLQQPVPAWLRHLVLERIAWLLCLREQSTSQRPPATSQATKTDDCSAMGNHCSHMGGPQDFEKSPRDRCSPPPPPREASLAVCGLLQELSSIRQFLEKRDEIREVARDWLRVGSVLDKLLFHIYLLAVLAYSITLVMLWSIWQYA

[2] = target: T2, Endothelin-1 receptor (Homo sapiens) (UniProt P25101); assay: Agonist activity at recombinant human ETA receptor at 10 uM by aequorin reporter based assay relative to agonist; format: functional
T2 sequence (whole entry): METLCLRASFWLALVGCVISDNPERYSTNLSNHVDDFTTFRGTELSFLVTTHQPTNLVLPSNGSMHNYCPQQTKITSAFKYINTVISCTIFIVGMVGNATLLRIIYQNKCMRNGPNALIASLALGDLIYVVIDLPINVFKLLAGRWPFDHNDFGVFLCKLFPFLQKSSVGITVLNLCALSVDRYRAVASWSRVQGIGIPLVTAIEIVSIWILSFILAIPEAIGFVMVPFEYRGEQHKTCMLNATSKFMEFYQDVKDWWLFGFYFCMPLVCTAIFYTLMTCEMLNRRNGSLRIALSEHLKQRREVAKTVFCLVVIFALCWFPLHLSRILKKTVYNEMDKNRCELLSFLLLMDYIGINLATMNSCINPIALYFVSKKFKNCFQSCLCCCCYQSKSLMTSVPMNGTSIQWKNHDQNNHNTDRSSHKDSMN

[3] = target: Kappa-type opioid receptor (Homo sapiens) (UniProt P41145); assay: Agonist activity at recombinant human kappa-type opioid receptor at 10 uM by GTPgamma[35S] binding-based assay relative to agonist; format: functional
[4] = target: 5-hydroxytryptamine receptor 2B (Homo sapiens) (UniProt P41595); assay: Antagonist activity at recombinant human 5-HT2B assessed as inhibition of agonist-induced effect at 10 uM by aequorin reporter based assay; format: functional
[5] = target: Histamine H1 receptor (Homo sapiens) (UniProt P35367); assay: Agonist activity at recombinant human histamine H1 receptor at 10 uM by aequorin reporter based assay relative to agonist; format: functional
[6] = target: 5-hydroxytryptamine receptor 6 (Homo sapiens) (UniProt P50406); assay: Antagonist activity at recombinant human 5-HT6R assessed as inhibition of agonist-induced cAMP induction at 10 uM by HTRF assay; format: functional
[7] = target: T3, 5-hydroxytryptamine receptor 2C (Homo sapiens) (UniProt P28335); assay: Antagonist activity at recombinant human 5-HT2C assessed as inhibition of agonist-induced effect at 10 uM by aequorin reporter based assay; format: functional
T3 sequence (whole entry): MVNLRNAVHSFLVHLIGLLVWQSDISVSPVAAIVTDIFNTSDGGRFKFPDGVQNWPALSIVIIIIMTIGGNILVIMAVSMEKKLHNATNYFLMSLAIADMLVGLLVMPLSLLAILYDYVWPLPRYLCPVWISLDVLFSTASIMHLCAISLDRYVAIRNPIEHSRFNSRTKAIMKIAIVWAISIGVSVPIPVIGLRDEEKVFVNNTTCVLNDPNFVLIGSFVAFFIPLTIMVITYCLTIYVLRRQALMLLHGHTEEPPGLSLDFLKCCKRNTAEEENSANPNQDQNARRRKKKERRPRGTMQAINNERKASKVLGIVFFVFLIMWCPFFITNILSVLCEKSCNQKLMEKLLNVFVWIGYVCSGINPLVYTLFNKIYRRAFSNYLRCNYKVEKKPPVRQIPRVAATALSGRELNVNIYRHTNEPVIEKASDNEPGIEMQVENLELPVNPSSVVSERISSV

[8] = target: T4, Alpha-2A adrenergic receptor (Homo sapiens) (UniProt P08913); assay: Agonist activity at recombinant human alpha-2a adrenergic receptor at 10 uM by GTPgamma[35S] binding-based assay relative to agonist; format: functional
T4 sequence (whole entry): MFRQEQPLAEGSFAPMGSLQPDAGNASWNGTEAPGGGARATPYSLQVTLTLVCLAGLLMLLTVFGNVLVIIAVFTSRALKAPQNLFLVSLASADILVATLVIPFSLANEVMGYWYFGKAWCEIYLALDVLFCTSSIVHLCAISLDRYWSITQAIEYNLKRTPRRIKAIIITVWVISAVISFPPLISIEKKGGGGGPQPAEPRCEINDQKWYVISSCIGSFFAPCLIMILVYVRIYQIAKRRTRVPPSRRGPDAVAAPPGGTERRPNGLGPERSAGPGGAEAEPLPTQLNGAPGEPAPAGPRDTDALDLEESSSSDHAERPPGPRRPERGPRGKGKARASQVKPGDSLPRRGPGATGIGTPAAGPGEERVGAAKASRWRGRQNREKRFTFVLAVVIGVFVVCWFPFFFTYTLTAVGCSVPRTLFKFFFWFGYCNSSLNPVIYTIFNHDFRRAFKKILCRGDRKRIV

[9] = target: D(1A) dopamine receptor (Homo sapiens) (UniProt P21728); assay: Agonist activity at recombinant human dopamine D1 receptor assessed as induction of cAMP levels at 10 uM by HTRF assay relative to agonist; format: functional
[10] = target: T5, Muscarinic acetylcholine receptor M4 (Homo sapiens) (UniProt P08173); assay: Antagonist activity at human muscarinic M4 receptor assessed as inhibition of agonist-induced effect at 10 uM by GTPgamma[35S] binding-based assay; format: functional
T5 sequence (whole entry): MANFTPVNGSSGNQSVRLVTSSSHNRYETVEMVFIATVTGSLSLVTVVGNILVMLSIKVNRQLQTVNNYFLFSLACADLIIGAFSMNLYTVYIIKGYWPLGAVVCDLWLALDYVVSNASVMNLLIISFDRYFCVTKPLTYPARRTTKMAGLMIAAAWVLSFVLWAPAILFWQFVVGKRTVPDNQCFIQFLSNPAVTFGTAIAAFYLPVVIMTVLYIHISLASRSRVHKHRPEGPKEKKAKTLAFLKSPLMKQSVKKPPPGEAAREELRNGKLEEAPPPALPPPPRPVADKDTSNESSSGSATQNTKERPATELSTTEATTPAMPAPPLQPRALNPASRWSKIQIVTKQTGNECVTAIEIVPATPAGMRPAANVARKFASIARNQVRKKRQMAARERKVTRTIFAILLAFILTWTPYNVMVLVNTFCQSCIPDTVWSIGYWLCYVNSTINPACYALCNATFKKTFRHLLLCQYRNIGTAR

Sequence of 5-hydroxytryptamine receptor 2B (Homo sapiens) (P41595 whole entry): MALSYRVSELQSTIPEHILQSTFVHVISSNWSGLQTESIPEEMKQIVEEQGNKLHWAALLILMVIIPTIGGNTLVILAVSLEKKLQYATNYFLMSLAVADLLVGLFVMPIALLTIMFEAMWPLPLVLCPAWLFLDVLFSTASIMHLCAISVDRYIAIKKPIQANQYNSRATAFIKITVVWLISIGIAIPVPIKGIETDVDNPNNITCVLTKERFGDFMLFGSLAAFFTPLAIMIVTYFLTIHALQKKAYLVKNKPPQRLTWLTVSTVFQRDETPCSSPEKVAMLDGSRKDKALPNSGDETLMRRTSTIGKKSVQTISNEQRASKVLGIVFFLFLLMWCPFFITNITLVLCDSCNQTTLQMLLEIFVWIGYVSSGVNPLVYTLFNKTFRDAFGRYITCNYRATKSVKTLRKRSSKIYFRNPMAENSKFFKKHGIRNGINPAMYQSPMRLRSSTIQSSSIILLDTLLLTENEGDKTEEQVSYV
Sequence of 5-hydroxytryptamine receptor 6 (Homo sapiens) (P50406 whole entry): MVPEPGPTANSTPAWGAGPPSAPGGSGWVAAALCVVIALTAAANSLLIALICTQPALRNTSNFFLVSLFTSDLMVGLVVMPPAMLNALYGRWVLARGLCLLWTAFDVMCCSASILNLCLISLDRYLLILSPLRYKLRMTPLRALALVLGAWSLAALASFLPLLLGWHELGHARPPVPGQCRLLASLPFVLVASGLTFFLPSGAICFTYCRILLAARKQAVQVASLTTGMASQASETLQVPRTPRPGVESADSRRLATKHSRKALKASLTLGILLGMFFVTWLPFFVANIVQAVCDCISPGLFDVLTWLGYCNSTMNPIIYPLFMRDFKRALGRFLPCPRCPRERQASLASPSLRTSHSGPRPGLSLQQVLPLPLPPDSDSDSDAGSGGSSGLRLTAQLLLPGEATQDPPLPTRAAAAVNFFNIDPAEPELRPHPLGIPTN
Sequence of Kappa-type opioid receptor (Homo sapiens) (P41145 whole entry): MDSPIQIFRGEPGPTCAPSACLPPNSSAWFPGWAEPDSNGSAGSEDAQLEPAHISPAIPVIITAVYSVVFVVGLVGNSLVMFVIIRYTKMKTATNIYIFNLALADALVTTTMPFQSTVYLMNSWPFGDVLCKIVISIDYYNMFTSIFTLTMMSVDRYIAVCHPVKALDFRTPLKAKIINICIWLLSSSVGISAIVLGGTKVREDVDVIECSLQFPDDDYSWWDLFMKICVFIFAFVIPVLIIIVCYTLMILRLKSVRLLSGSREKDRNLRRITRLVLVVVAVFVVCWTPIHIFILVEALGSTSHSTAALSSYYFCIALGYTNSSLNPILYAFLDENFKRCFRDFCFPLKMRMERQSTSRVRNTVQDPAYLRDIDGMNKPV
Sequence of D(1A) dopamine receptor (Homo sapiens) (P21728 whole entry): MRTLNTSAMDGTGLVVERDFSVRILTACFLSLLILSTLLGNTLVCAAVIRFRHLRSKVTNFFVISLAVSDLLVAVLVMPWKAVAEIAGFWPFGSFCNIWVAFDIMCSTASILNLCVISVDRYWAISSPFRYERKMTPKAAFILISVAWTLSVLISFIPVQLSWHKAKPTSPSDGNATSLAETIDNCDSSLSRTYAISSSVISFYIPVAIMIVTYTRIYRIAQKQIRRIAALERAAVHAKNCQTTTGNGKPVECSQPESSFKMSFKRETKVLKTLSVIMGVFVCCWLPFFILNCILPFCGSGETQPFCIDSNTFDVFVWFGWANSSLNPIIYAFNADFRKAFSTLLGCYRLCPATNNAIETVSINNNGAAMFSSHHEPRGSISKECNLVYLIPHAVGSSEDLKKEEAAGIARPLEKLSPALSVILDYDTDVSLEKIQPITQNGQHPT
Sequence of Histamine H1 receptor (Homo sapiens) (P35367 whole entry): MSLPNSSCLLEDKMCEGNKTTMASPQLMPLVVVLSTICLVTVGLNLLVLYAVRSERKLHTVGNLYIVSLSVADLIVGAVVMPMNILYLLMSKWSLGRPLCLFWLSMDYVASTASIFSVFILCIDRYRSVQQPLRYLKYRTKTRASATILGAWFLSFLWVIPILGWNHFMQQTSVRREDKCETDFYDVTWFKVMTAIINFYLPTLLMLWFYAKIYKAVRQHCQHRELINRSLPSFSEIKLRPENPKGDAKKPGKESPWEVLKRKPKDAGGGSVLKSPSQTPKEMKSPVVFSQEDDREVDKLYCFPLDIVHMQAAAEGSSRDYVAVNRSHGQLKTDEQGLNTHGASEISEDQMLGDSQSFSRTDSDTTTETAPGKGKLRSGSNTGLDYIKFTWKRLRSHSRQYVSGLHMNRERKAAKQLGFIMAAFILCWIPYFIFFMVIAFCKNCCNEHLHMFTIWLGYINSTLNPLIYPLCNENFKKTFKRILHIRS

Row | SMILES | inhibition [1] | Activity [2] | Activity [3] | inhibition [4] | Activity [5] | inhibition [6] | inhibition [7] | Activity [8] | Activity [9] | inhibition [10]
1 | CN(CCCNC(=O)c1ccc(Cl)cc1)CCc1ccccc1 | 62% | -1% | -1% | 92% | 12% | 3% | 95% | -3% | -6% | 18%
2 | CN(CCNC(=O)c1ccc(C#N)cc1)Cc1ccccc1 | 75% | -1% | 5% | 16% | 0% | -2% | 34% | -1% | 9% | 25%
3 | CN(CCCNC(=O)c1cccc(Br)c1)Cc1ccccc1 | 83% | -1% | 6% | 78% | 35% | -2% | 54% | -3% | -5% | 33%
4 | COc1cccc(C(=O)NCCCN(C)Cc2ccccc2)c1 | 28% | 0% | 7% | 26% | 14% | -1% | 36% | 0% | 8% | 21%
5 | CN(CCNC(=O)c1ccc(Cl)cc1)Cc1ccccc1 | 51% | -1% | 5% | 66% | 0% | -3% | 92% | -3% | -4% | 13%
6 | CN(CCNC(=O)c1ccc([N+](=O)[O-])cc1)Cc1ccccc1 | 30% | -1% | 8% | 35% | 0% | 3% | 80% | -1% | 14% | 26%
7 | CN(CCCNC(=O)c1ccc(Br)cc1)Cc1ccccc1 | 79% | 1% | 3% | 37% | 1% | -1% | 34% | 3% | -7% | 20%
8 | CN(CCCNC(=O)c1ccc(C(F)(F)F)cc1)Cc1ccccc1 | 75% | -1% | 1% | 66% | 0% | 1% | 24% | -2% | -4% | 23%
9 | COc1ccc(C(=O)NCCCN(C)Cc2ccccc2)cc1 | 19% | 0% | 8% | 16% | 0% | 0% | 33% | -1% | 4% | 25%
10 | CN(CCCNC(=O)c1ccc(Cl)cc1)Cc1ccccc1 | 42% | 0% | 2% | 58% | 1% | -6% | 43% | -2% | -7% | 19%
11 | CCCc1ccc(C(=O)NCCCN(C)Cc2ccccc2)cc1 | 90% | -1% | -2% | 75% | 0% | 1% | 94% | 1% | -2% | 33%
12 | CN(CCCNC(=O)c1ccc([N+](=O)[O-])cc1)Cc1ccccc1 | 23% | -1% | 2% | 26% | 0% | -4% | 11% | -5% | -1% | -7%

From ChEMBL document CHEMBL4130363, “Synthesis and pharmacological evaluation of benzamide derivatives as potent and selective sigma-1 protein ligands” (Eur J Med Chem, 2017)
